Experiments:
[1] = system: tumor cells (K562, U937) and normal cells; experiment: Cellular uptake by flow cytometry in tumor cells and normal cells; assay type: cell-based; details: tumor cells compared with normal healthy cells
Description: (§1) Two kinds of leukemia cells (K562, U937) as main tumor cell models and cells (peripheral blood mononuclear cells, spleen lymphocytes) separated from healthy ICR mice as normal cell models were used. The multivolume spectrophotometer system and fluorescence spectrophotometer were used to determine the spectral characteristics of DVDMS. The uptake of DVDMS by tumor cells and normal cells was measured by flow cytometry. The MTT assay was used to examine the cytotoxicity and sonotoxicity of DVDMS.

ECA-109 cells = experiment: Sonodynamic therapy in ECA-109 cells; assay type: cell-based
From the text: Abundant intracellular reactive oxygen species (ROS) was found in the SDT groups, and the cytotoxicity induced by SDT was effectively remitted by ROS scavengers. […] Release of cytochrome C, an increased rate of apoptosis, and activated apoptosis protein were detected in the SDT group. In addition, relatively severe cell damage was observed on scanning electron microscopy after treatment with DVDMS and SDT.

4T1 mammary cancer = experiment: Photodynamic therapy in 4T1 mammary cancer-bearing mice; assay type: in vivo; details: for tumor volume inhibition ratio: 17th day
Description: At the beginning, we have pointed out that DVDMS is an active component isolated from Photofrin™ II. So it would be very interesting to compare the in vivo anti-cancer efficacy of DVDMS-PDT with PHOTOFRIN™-PDT (PF-PDT).
Representative mice were photographed at 6, 12, or 18 days after the corresponding treatments. […] However, tumor size decreased in a dose-dependent manner with increasing DVDMS and light exposure.
The tumor volume and tumor weight results were evaluated for each group.
On the 19th day, the tumors were photographed and the average tumor weight in each group was calculated.

[2] = Spectral characteristics (absorption and fluorescence emission spectra); assay type: physicochemical
Description: as §1

[3] = system: leukemia cells (K562, U937); experiment: MTT assay of cytotoxicity and sonotoxicity in leukemia cells; assay type: cell-based
Description: as §1

brain stem tumor = experiment: Clinical cases of SDT for tumors of the brain stem; assay type: in vivo, patient
Description: Below are two typical clinical cases where SDT was selected for treatment of tumors of the brain stem. For Photofrin™ the dosage was 2 mg/kg of body weight. For DVDMS, the dosage was 0.2 mg/kg of body weight, a factor of ten less than Photofrin™. The ultrasound frequency was 0.5 to 1 MHz and the ultrasound power was 0.1 W/cm^2 to 1.5 W/cm^2. Ultrasound treatment is delayed after injection to permit absorbance of the sonodynamic compound into the tumor or other hyperproliferative tissue. In the case of Photofrin™ the delay is extensive, e.g. 20 to 30 hours. […] Due to differential absorption times into tumor, patient was intravenously injected with Photofrin™ 24 hours before ultrasound treatment and DVDMS was intravenously injected two hours prior to ultrasound treatment. Treatment occurred each time for 20-30 minutes and total time to treat three times was 72 hours.

[4] = system: cancerous and normal cells; experiment: Autofluorescence intensity and singlet oxygen production in cells; assay type: cell-based; details: compared with other photosensitizers / Photofrin
[5] = system: peripheral blood mononuclear cells, spleen lymphocytes; experiment: MTT assay of cytotoxicity in normal cells; assay type: cell-based, ICR mice
Description: as §1

sarcoma 180 solid tumors = experiment: Sonodynamic antitumor effect in mice bearing sarcoma 180 solid tumors; assay type: in vivo
Description: In order to determine the optimum timing of ultrasound exposure after administration of DVDMS, a three-dimensional optical imaging system (IVIS spectrum) was used to observe the biodistribution of DVDMS in S180 tumor. The antitumor effects were estimated by the tumor inhibition ratio (volume and weight) after sonodynamic therapy. […] A significant synergistic effect of ultrasound combined with DVDMS was obtained when the load power indicated 4 W and DVDMS dose was above 2 mg/kg. […] Conclusions: DVDMS is a potential sensitizer for sonodynamic cancer therapy. The antitumor effect of ultrasound could be enhanced in the presence of DVDMS, which might be involved in a sonochemical mechanism.

skin = experiment: Dermatological phototoxicity and skin retention after treatment; design: species or system patient; details: in vivo

C=Cc1c(C)c2cc3nc(cc4[nH]c(cc5nc(cc1[nH]2)C(C)=C5C(C)OC(C)C1=C(C)c2cc5[nH]c(cc6nc(cc7[nH]c(cc1n2)c(C)c7CCC(=O)[O-])C(CCC(=O)[O-])=C6C)c(C)c5C=C)c(C)c4CCC(=O)[O-])C(CCC(=O)[O-])=C3C.[Na+].[Na+].[Na+].[Na+] (stereo not shown) [DVDMS]
cellular uptake and accumulation [1]: quick cellular uptake and selective accumulation in tumor cells | subcellular location (ECA-109 cells): mainly to the mitochondria | SDT cytotoxicity (ECA-109 cells; compared with hematoporphyrin): more cytotoxic | tumor size versus PF group (4T1 mammary cancer; 2 mg/kg DVDMS vs 10 mg/kg PF, same light exposure 100 J/cm^2): less than in the 10 mg/kg PF group | tumor volume inhibition ratio (4T1 mammary cancer; 1 mg/kg DVDMS+50 J/cm^2, vs control): 38.51% | tumor volume inhibition ratio (4T1 mammary cancer; 2 mg/kg DVDMS alone, vs control): 7.42% | tumor volume inhibition ratio (4T1 mammary cancer; 2 mg/kg DVDMS+50 J/cm^2, vs control): 59.23% | tumor volume inhibition ratio (4T1 mammary cancer; 2 mg/kg DVDMS+100 J/cm^2, vs control): 66.97% | tumor volume inhibition ratio (4T1 mammary cancer; 2 mg/kg DVDMS+150 J/cm^2, vs control): 78.12% | tumor volume inhibition ratio (4T1 mammary cancer; group (2) mg/kg DVDMS+50 J/cm^2 (dose not given), vs control): 18.61% | survival of tumor-bearing mice (4T1 mammary cancer; DVDMS-PDT compared to control and DVDMS-only groups (p<0.01)): significantly prolonged | survival of tumor-bearing mice versus PF-PDT (4T1 mammary cancer; DVDMS-PDT vs PF-PDT (p<0.05)): more effective than PF-PDT | tumor volume and tumor weight (4T1 mammary cancer; nineteen days after treatment, DVDMS plus light exposure vs control or DVDMS alone): significantly lower | absorption spectra, maximum peak [2]: 359 nm | fluorescence emission [2]: 642 nm | sonotoxicity: cell-damaging effect of ultrasound in the presence of DVDMS ([3]; MTT, under appropriate conditions): significantly enhanced | cytotoxicity by the MTT method ([3]; without ultrasound): dose dependent | time to what appears to be complete remission (brain stem tumor; SDT, 0.2 mg/kg): ≤ 30 days | absorbance into the tumor after injection (brain stem tumor; compared with Photofrin): absorbance is much quicker | efficacy in sonic treatment relative to Photofrin II (brain stem tumor; injected into a host): about ten times higher | cranial MRI on review after SDT treatment (brain stem tumor; patient, 0.2 mg/kg): tumor was absorbed, brain stem edema was significantly reduced | head MRI 30 days after treatment (brain stem tumor; patient, 0.2 mg/kg): ventral brain stem tumor has disappeared | autofluorescence intensity [4]: significantly higher | singlet oxygen production efficiency [4]: significantly higher | cytotoxicity to normal cells [5]: little cytotoxicity | tumor weight inhibition ratio (sarcoma 180 solid tumors; DVDMS alone, no ultrasound): 23.15% | biodistribution (IVIS spectrum optical imaging) (sarcoma 180 solid tumors; S180 tumor-bearing mice): preferential localization in tumors, but a low accumulation in most normal tissues | metastasis (sarcoma 180 solid tumors; SDT-treated mice compared with the control group): no metastasis occurred | tumor volume inhibition ratio (sarcoma 180 solid tumors; day 14 after DVDMS-SDT): 56.27% | tumor weight inhibition ratio (sarcoma 180 solid tumors; synergistic treatment (ultrasound combined with DVDMS)): 55.37% | dermatological phototoxicity (skin): lacking dermatological phototoxicity

Source: patent publication US9999760B2, “DVDMS sensitizer for cancer sonodynamic therapy” (priority 2015, dated 2018)
